Measured values as given in patent US9968610B2, “Pyrrolopyrimidine derivatives as NR2B NMDA receptor antagonists” (Rugen Holdings (Cayman) Limited, priority 2014, dated 2018).

Test system: Rats
Experiment: Electroconvulsive threshold (ECT) test
Assay type: in vivo, rat
Details: p.o. 60 minutes before ECS, theophylline 128 mg/kg, diazepam 16 mg/kg

Which “pro- or anticonvulsant activity (electroconvulsive threshold)” value does the source give for CN1C(=O)CN=C(c2ccccc2)c2cc(Cl)ccc21 [diazepam] here?
The value was “expected pro- and anticonvulsant activities”.

For Cn1c(=O)c2[nH]cnc2n(C)c1=O [theophylline, Theophylline], which “pro- or anticonvulsant activity (electroconvulsive threshold)” value is on record?
Its value is “expected pro- and anticonvulsant activities”.
